Measured values published in patent US4235905A, “1H-Pyrimido[4,5-c]-1,2-diazepines” (Burroughs Wellcome Co., priority 1977, dated 1980).
Like-named read-outs stand apart in the source and are kept apart here.

Columns and labels:
[1] = tested on: Eimeria tenella (Weybridge); assay: Anti-coccidial activity in vitro, chick embryo liver cell cultures with Eimeria tenella sporozites; format: cell-based; conditions: for Activity, Alone: compound alone; for Activity, With DV/SQX: with sulphaquinoxaline (0.01 μg/ml) and diaveridine (0.031 μg/ml); for minimal effective concentration: Eimeria tenella, read-out: minimum active anti-coccidial amount
Experimental: The anti-coccidial activity of compounds of formula (III) alone and in combination with a mixture of diaveridine (DV) and sulphaquinoxaline (SQX) in vitro was tested according to the following procedure.
Using standard test procedures employing primary explant cultures of chick embryo liver cells and a suspension of Eimeria tenella (Weybridge) sporozites the activity of the compounds was determined at various concentrations. In the above test, each test compound was used either alone or in combination with sulphaquinoxaline (0.01 μg/ml) and diaveridine (0.031 μg/ml). It should be noted that the minimum active anti-coccidial amounts of sulphaquinoxaline and diaveridine are 0.024 μg/ml and 0.098 μg/ml respectively.
The following results were obtained wherein activity is expressed as follows: […]

LD50 in mice = conditions: mouse, in vivo, ip
Experimental: By standard techniques the LD50 values of the following compounds of formula (I) were determined in mice.

Staphylococcus aureus = assay: Antibacterial activity of trimethoprim and sulphamethoxazole alone and in combination with compounds of formula (II) (activity index); format: cell-based; conditions: compound of formula (II) at 50 μg/ml, viable counts after 24 hours incubation of 10^6 organisms per ml; for activity index, SMX: in combination with sulphamethoxazole (SMX); for activity index, TMP: in combination with trimethoprim (TMP)
Experimental: The antibacterial activity against Staphylococcus aureus of trimethoprim (TMP) and sulphamethoxazole (SMX) alone and in combination with compounds of formula (II) were compared.
The results shown in the table are expressed as an activity index which is: [formula] the effect of the compounds being measured by viable counts after 24 hours incubation of 10^6 organisms per ml.
In this test, the compounds of formula (II) were present at 50 μg/ml.
An activity index ≥2 is indicative of substantial potentiation: […]

[2] = tested on: Weybridge strain of Eimeria tenella; assay: Anti-coccidial activity in vivo in chicks, caecal lesion score; conditions: compound 200 ppm in diet with DV 20 ppm and SQX 20 ppm, sixth day after infection, scale 0-3, dead = 4
Experimental: Compounds of formula (III) were tested for anti-coccidial activity in vivo in combination with diaveridine (DV) and sulphaquinoxaline (SQX), each at 20 ppm, according to the following procedure. Groups of five, one week old chicks were each injected orally with 6,000 sporulated o cysts of the Weybridge strain of Eimeria tenella. Drugs were administered in LD 5 chick mash deficient in Vitamin K, beginning on the day of infection and continuing for 7 days. On the sixth day after infection, caecal lesions of surviving chicks were scored on a scale of 0, 1, 2 or 3 and any dead chicks were scored as 4.

In the case of `CN1N=C(c2ccccc2)C=C(c2ccccc2)c2c1nc(N)[nH]c2=O` [Example 1, 8-Amino-3,5-diphenyl-1-methyl-1H-pyrimido{4,5-c}-1,2-diazepin-6(7H)-one], the “Activity, Alone” value ([1]; concentration 25 μg/ml) is reported as 4 (1-25% parasite development) and the “Activity, With DV/SQX” value ([1]; concentration 25 μg/ml) is reported as 4 (1-25% parasite development).

Compound `CC1=CC(C)=NN(C)c2nc(N)[nH]c(=O)c21` [Example 2, 8-Amino-1,3,5-trimethyl-1H-pyrimido{4,5-c}-1,2-diazepin-6(7H)-one] has an LD50 (LD50 in mice) of roughly 500 mg/kg.

For `COC(=O)C1=NN(C)c2nc(N)[nH]c(=O)c2C(c2cccc(O)c2)=C1` [Example 3, 8-Amino-3-carbomethoxy-5-(3-hydroxyphenyl)-1-methyl-1H-pyrimido{4,5-c}-1,2-diazepin-6(7H)-one], the “activity index, SMX” value (Staphylococcus aureus) was 2.7 and the “activity index, TMP” value (Staphylococcus aureus) was 0.9.

In the case of `CCOC(=O)C1=NN(C)c2nc(N)[nH]c(=O)c2C(c2ccccc2)=C1` [Example 5, 8-Amino-3-carbethoxy-1-methyl-5-phenyl-1H-pyrimido-{4,5-c}-1,2-diazepin-6(7H)-one], the “activity index, SMX” value (Staphylococcus aureus) is reported as greater than 2.8 and the “activity index, TMP” value (Staphylococcus aureus) is reported as 2.0.

With `COC(=O)C1=NN(C)c2nc(N)[nH]c(=O)c2C(c2cc(OC)c(OC)c(OC)c2)=C1` [Example 6, 8-Amino-3-carbomethoxy-1-methyl-5-(3,4,5-trimethoxyphenyl)-1H-pyrimido{4,5-c}-1,2-diazepin-6(7H)-one] the “Activity, Alone” value ([1]; concentration 1.56 μg/ml) was 2 (51-75% parasite development), the “Activity, Alone” value ([1]; concentration 6.25 μg/ml) was 3 (26-50% parasite development) and the “Activity, Alone” value ([1]; concentration 25 μg/ml) was 3 (26-50% parasite development). The “Activity, Alone” value ([1]; concentration 100 μg/ml) was 3 (26-50% parasite development), the “Activity, With DV/SQX” value ([1]; concentration 1.56 μg/ml) was 3 (26-50% parasite development) and the “Activity, With DV/SQX” value ([1]; concentration 6.25 μg/ml) was 3 (26-50% parasite development). For the same compound, the “Activity, With DV/SQX” value ([1]; concentration 25 μg/ml) was 4 (1-25% parasite development), the “Activity, With DV/SQX” value ([1]; concentration 100 μg/ml) was 5 and the Lesion score [2] was 0.6.

In the case of `CCOC(=O)C1=NN(C)c2nc(N)[nH]c(=O)c2C(c2ccc(OC)cc2OC)=C1` [Example 7, 8-Amino-3-carbethoxy-1-methyl-5-(2,4-dimethoxyphenyl)1H-pyrimido{4,5-c}-1,2-diazepin-6(7H)-one], the “Activity, Alone” value ([1]; concentration 1.56 μg/ml) is reported as 0 (95-100% parasite development), the “Activity, Alone” value ([1]; concentration 6.25 μg/ml) is reported as 2 (51-75% parasite development) and the “Activity, Alone” value ([1]; concentration 25 μg/ml) is reported as 4 (1-25% parasite development). The “Activity, Alone” value ([1]; concentration 100 μg/ml) was 4 (1-25% parasite development), the “Activity, With DV/SQX” value ([1]; concentration 1.56 μg/ml) was 2 (51-75% parasite development) and the “Activity, With DV/SQX” value ([1]; concentration 6.25 μg/ml) was 3 (26-50% parasite development). The “Activity, With DV/SQX” value ([1]; concentration 25 μg/ml) was 5, the “Activity, With DV/SQX” value ([1]; concentration 100 μg/ml) was 5 and the Lesion score [2] was 1.2.

`COc1ccc(Cc2cnc(N)nc2N)cc1OC` [diaveridine, reference compound] showed a minimal effective concentration [1] of 0.098 µg/mL.

`COC(=O)C1=NN(C)c2nc(N)[nH]c(=O)c2C(c2cc(OC)c(OC)c(OC)c2)=C1` [drawing 31] gave an LD50 (LD50 in mice) greater than 500 mg/kg.

Compound `Nc1ccc(S(=O)(=O)Nc2cnc3ccccc3n2)cc1` [sulphaquinoxaline, reference compound] has a minimal effective concentration ([1]; in vitro, alone) of 0.024 µg/mL.
